In brackets after ≈: the same amount, converted by molar mass.

Experimental findings from ChEMBL document CHEMBL3232825 (J Med Chem, 2014) are described below.

The target of one data set is Endoplasmin (Homo sapiens, UniProt P14625).
Data set [1] concerns the target T1, Heat shock protein HSP 90-beta (Homo sapiens, UniProt P08238).
For data set [2], the target named is T1, Heat shock protein HSP 90-beta. This is another data set of the same source.
Data set [3] addresses T2, Heat shock protein 75 kDa, mitochondrial (Homo sapiens, UniProt Q12931).
T2 sequence (Q12931 whole entry): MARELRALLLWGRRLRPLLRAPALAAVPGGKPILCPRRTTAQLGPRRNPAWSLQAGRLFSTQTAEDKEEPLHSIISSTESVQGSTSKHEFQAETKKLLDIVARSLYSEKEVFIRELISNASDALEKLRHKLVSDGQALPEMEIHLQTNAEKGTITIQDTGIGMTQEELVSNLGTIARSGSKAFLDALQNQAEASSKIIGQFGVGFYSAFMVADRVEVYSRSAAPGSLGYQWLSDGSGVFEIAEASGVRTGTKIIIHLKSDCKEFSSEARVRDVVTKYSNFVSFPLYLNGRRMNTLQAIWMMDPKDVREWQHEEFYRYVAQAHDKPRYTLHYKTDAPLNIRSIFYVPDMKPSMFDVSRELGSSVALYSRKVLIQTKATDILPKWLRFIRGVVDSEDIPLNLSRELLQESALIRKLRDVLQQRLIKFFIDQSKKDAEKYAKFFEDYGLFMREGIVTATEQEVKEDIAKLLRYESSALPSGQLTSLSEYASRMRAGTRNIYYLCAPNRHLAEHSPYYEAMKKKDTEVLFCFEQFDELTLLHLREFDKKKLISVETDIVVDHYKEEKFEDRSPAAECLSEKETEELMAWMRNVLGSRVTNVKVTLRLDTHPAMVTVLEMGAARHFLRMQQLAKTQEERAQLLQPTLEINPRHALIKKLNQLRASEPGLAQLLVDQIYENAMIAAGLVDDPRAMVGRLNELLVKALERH

Data set [4] in a line: in vivo. Conditions: Sprague-Dawley, rat, sc, 10 mg/kg.
The nature of data set [5]: in vivo. The settings on record: Sprague-Dawley, rat, iv, 1 mg/kg.
Data set [6] is described as follows: in vivo. Conditions: Sprague-Dawley, rat, iv, 1 mg/kg. This is another data set of the same source.
A short description of data set [7]: in vivo. Conditions: Sprague-Dawley, rat, plasma, iv, 1 mg/kg.
Data set [8] is described as follows: in vivo. Conditions: Sprague-Dawley, rat, brain and plasma, sc, 10 mg/kg.
The nature of data set [9]: in vivo. The settings on record: Sprague-Dawley, rat, plasma, sc, 10 mg/kg.
Data set [10] can be described thus: in vivo. Conditions: Sprague-Dawley, rat, iv, 1 mg/kg. The source holds these as a separate data set.
Data set [11] can be described thus: Aqueous solubility of the compound at pH 7.4. The format is physicochemical.

Sequence of Endoplasmin (P14625 whole entry): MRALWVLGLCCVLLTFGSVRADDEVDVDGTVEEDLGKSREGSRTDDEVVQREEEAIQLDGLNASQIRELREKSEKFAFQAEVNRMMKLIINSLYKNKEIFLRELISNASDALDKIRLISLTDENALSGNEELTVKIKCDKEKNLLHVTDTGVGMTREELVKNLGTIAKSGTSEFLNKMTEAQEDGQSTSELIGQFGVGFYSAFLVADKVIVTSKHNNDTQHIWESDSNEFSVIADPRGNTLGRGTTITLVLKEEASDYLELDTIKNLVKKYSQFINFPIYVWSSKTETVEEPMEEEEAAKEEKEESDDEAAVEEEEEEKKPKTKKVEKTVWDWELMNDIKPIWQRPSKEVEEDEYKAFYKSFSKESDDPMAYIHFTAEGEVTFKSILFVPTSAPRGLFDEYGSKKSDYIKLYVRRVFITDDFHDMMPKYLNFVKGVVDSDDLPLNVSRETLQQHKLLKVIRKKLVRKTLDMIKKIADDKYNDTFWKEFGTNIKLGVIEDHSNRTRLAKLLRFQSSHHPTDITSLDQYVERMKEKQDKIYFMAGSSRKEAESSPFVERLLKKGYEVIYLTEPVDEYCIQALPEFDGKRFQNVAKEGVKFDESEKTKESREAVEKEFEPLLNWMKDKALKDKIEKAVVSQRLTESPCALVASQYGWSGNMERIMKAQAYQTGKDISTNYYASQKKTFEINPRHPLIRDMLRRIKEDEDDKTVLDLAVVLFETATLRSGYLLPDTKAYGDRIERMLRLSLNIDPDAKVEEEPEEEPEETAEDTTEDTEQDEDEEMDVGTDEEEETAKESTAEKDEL
T1 sequence (P08238 whole entry): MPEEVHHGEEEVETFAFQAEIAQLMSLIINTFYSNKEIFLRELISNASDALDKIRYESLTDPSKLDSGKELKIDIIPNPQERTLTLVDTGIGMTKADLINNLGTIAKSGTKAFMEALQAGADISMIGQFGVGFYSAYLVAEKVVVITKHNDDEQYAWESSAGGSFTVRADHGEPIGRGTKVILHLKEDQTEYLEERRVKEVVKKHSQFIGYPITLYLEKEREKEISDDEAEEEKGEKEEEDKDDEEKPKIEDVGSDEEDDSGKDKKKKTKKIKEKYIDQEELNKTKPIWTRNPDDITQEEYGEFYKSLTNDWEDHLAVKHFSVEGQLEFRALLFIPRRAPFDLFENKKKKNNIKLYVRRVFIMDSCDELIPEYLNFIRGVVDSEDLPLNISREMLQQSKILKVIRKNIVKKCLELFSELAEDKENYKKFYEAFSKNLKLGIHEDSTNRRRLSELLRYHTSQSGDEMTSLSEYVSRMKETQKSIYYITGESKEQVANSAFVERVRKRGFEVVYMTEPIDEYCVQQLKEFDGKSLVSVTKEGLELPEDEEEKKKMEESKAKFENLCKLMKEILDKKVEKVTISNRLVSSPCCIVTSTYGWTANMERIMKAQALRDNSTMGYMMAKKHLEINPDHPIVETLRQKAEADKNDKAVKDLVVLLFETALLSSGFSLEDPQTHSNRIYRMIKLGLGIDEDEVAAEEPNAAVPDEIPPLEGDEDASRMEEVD

As usually defined, the Ki is a measure of affinity in units of concentration, obtained from inhibition or displacement. In general, IC50 refers to the concentration that gives 50% inhibition. A low value points to greater potency. For `Cc1cn(-c2cc3c(c(-c4ccc(F)cc4)c2)C(=O)NCC3)c2c1C(=O)CC(C)(C)C2`, the Ki at Endoplasmin is over 10 µM; in [1], 0.01 µM; in data set [3] it was over 10 µM. Moreover, the IC50 in data set [2] is 0.08 µM.
Regarding `Cc1cn(-c2cc3c(c(-c4cccc(F)c4)c2)C(=O)NCC3)c2c1C(=O)CC(C)(C)C2`, the Ki on Endoplasmin is over 10 µM; in [1] it was 0.02 µM; in [3] it was over 10 µM. In [2], half-maximal inhibition (IC50) required 0.081 µM.
As to `Cc1cn(-c2cc3c(c(Cc4ccccc4)c2)C(=O)NCC3)c2c1C(=O)CC(C)(C)C2`, the Ki at Endoplasmin was over 10 µM; in data set [1] it was 0.12 µM; in data set [3] it was over 10 µM. In data set [2], this compound had an IC50 of 0.48 µM.
As to `Cc1cn(-c2cc3c(c(C4CCCCC4)c2)C(=O)NCC3)c2c1C(=O)CC(C)(C)C2`, the Ki on Endoplasmin is over 10 µM; in data set [1], 0.005 µM; in [3], over 10 µM. In data set [2], this compound returned an IC50 of 0.036 µM.
Consider `Cc1cn(-c2cc3c(c(-c4ccccc4)c2)C(=O)NCC3)c2c1C(=O)CC(C)(C)C2`, for which the Ki is over 10 µM on Endoplasmin, 0.015 µM in data set [1] and over 10 µM in data set [3]. The compound further showed an IC50 in data set [2] of 0.23 µM.
As a reminder, the half-life is the time in which the quantity being followed falls by half. High values mean slow decline, low ones rapid decline. A word on the Vd: it is the apparent volume that relates the amount in the body to the concentration in plasma or blood. A high value points to extensive tissue distribution. Broadly, the clearance is the rate of elimination divided by the concentration. A low value points to inefficient removal. In general, AUC refers to the area under the concentration-time curve, a measure of exposure. A lower AUC goes with less exposure. The Kp is the ratio of the level in a tissue or fluid to that in plasma or blood. As to `Cc1cn(-c2cc3c(c(CC(C)C)c2)C(=O)NCC3)c2c1C(=O)CC(C)(C)C2`, the half-life was 11.6 h in “in vivo [4]” and 2.2 h in “in vivo [10]”. Moreover, the Vd in the data set “in vivo [5]” was 4.08 L/kg. Also, the Ki (on Endoplasmin; in data set [3]) was over 10 µM in each case. In the data set “in vivo [6]”, the clearance was found to be 25.7 mL/min/kg. Further, the exposure (AUC) in “in vivo [7]” was 640 ng·h/mL; in the data set “in vivo [9]”, 3580 ng·h/mL. Further, the Kp at 2 h in “in vivo [8]” stood at 0.5.
As usually defined, the solubility is how much of the substance goes into solution per volume. Higher therefore signals much dissolved substance. For the compound `CC1(C)CC(=O)c2c3c(n(-c4ccc(C(N)=O)c(N[C@H]5CCOC5)c4)c2C1)CCCC3`, in [1], the affinity, expressed as Ki, was 0.04 µM. Also, in data set [2], the IC50 is 0.53 µM. The same compound registered a solubility in data set [11] of 27 µM (≈ 11.4 µg/mL).
In the case of `CN1CCc2c3c(n(-c4ccc5c(c4)CNC5=O)c2C1)CC(C)(C)CC3=O`, the Ki (on Endoplasmin; in data set [1]; in data set [3]) was over 10 µM throughout. The compound also returned an IC50 in [2] of over 10 µM.
On to `CCCCc1cc(-n2cc(C)c3c2CC(C)(C)CC3=O)cc2c1C(=O)NCC2`, for which the values for the Ki (on Endoplasmin; in data set [1]; in [3]) were over 10 µM, 0.056 µM and over 10 µM, respectively. Besides, in [2], it took 1 µM to reach half-maximal inhibition (IC50).
Consider `CN1CCc2c3c(n(-c4ccc5c(c4)CCCNC5=O)c2C1)CC(C)(C)CC3=O`, for which the Ki (at Endoplasmin; in data set [1]; in [3]) was over 10 µM each time. For the same compound, the IC50 in data set [2] was over 10 µM.
In data set [11], `CN1CCc2c3c(n(-c4ccc(C(N)=O)c(N[C@H]5CCOC5)c4)c2C1)CC(C)(C)CC3=O` showed a solubility of over 200 µM.
On to `CC1(C)CC(=O)c2c(n(-c3ccc(C(N)=O)cc3)c3cnccc23)C1`, for which the Ki (on Endoplasmin; in data set [1]; in [3]) was over 10 µM in each case.
With `COc1ccc(-c2cc(-n3cc(C)c4c3CC(C)(C)CC4=O)cc3c2C(=O)NCC3)cc1`, the values for the Ki (on Endoplasmin; in data set [1]; in data set [3]) were over 10 µM, 0.04 µM and over 10 µM, respectively. In addition, the IC50 in [2] stood at 0.28 µM.
As to `CC1(C)CC(=O)c2c(n(-c3ccc(C(N)=O)cc3)c3cccnc23)C1`, the Ki (on Endoplasmin; in data set [1]; in [3]) was over 10 µM throughout.
Turning to `Cc1cn(-c2cc3c(c(C(C)(C)C)c2)C(=O)NCC3)c2c1C(=O)CC(C)(C)C2`, the Ki is over 10 µM at Endoplasmin, 0.14 µM in data set [1] and over 10 µM in data set [3]. Also, in [2], the IC50 worked out at 1.7 µM.
For `Cc1cn(-c2cc3c(c(C4CCOCC4)c2)C(=O)NCC3)c2c1C(=O)CC(C)(C)C2`, the Ki was 2.4 µM at Endoplasmin, 0.003 µM in data set [1] and over 10 µM in data set [3]. Further, the IC50 in data set [2] was found to be 0.019 µM.
As for `Cc1cn(-c2cc3c(c(C4CCC4)c2)C(=O)NCC3)c2c1C(=O)CC(C)(C)C2`, the Ki is over 10 µM at Endoplasmin, 0.039 µM in data set [1] and over 10 µM in [3]. Besides, the IC50 in [2] was 0.195 µM.
